Data on five compounds can be found in patent publication US9119855B2, “Compositions and methods for treatment of the side-effects associated with administration of cancer chemotherapeutic agents” (Asymmetric Therapeutics, LLC, priority 2008, dated 2015).

One series concerns Caco-2 cells. Here is the method:
5-FU was dissolved in water and added to media at 10 μM, the clinically-relevant dose. Media was changed every day with reapplication of 5-FU. After 72 hr, the cell viability was assessed and is expressed relative to a vehicle control (Caco-2, n=3).

The conditions of series [1]: Van Acker et al.; cited from earlier work.
For series [2] the following is noted: Van Acker et al.; cited from earlier work. This is another data set of the same source.
The subject of series [3] is primary human epithelial cells of the gingiva (HEGP). Kind of series: Protection of primary gingival epithelial cells from 5-FU toxicity, 72 hours (FIG. 9). Format: cell-based. From the text:
GI columnar cells rely for growth predominantly on de novo pyrimidine synthesis from nutrients in the GI contents. Squamous cells of the oropharynx rely for growth predominantly on salvage of cell constituents of the overlying cells closer to the tissue surface.

The next series is described as follows: in vitro. The series is classed as cell-based. The following applies: human. Here is the method: The efficacy of certain compounds as protective agents when co-administered with 5-FU was tested in cell culture. […] The relative viability of the cells was determined after 120 hours.
For series [4] the following is noted: acidic / low pH, orotate not charged (Robinson et al.); cited from earlier work.
The test system of a further series is primary human skin cells. The method, then:
The concentration of 5-FU was also 0.01 mM in these trials. […] The relative viability of the cells was determined after 48 hours (FIG. 7) or 72 hours (FIG. 8).

“Also recorded” adds a separate entry of the source. Like-named read-outs stand apart in the source and are kept apart here. Some results are limits rather than exact numbers.

As to `Nc1ncnc2nc[nH]c12` [adenine], the “cytoprotection against 10 μM 5-FU toxicity” value in the series with Caco-2 cells is given as “progressively greater cytoprotection”. In addition, the “excess of protective nucleobase required for quantitative protection” value in the series with Caco-2 cells (adenine alone, vs 10 μM 5-FU) was approximately 100 ×.
On to `Nc1nc(O)nc2nc(O)[nH]c12` [2,8-dihydroxy adenine], for which the renal toxicity entry in series [1] is recorded as “can cause renal stones”. In series [2], the solubility result is recorded as “poorly soluble”.
As to `O=c1cc[nH]c(=O)[nH]1` [uracil], the “efficacy and toxicity to primary gingival cells (HGEP)” value in series [3] (FIG. 9, 72 hours) is “effective and non-toxic”. Further, the “prevention of 5-FU toxicity” value in series [3] (excess of uracil together with 5-FU 10 μM) is “prevented 5-FU toxicity”. Also, the “protection against 5-FU toxicity” value is given as “significant protection” in series [3] (further addition of uracil at 1.25 mM to adenine and orotate 2.5 mM each (Result Y)); “even more significant protection” in series [3] (further addition of uracil at 2.5 mM to adenine and orotate 2.5 mM each (Result Z)). The “effect on cytoprotection by adenine 2.5 mM in combination with orotate 2.5 mM” value in the series with Caco-2 cells (further addition of uracil 1.25 and 2.5 mM, 10 μM 5-FU, data not shown) was “reversal of the cytoprotection”.
Consider `O=c1[nH]cc(F)c(=O)[nH]1` [5-FU, 5-fluorouracil, reference compound], for which the viability at 120 h, 0.01 mM in the series “in vitro” is less than 50%.
Consider `O=C(O)c1cc(=O)[nH]c(=O)[nH]1` [orotate], for which, in the series on Caco-2 cells, the “cytoprotection against 10 μM 5-FU toxicity” value is “statistically insignificant cytoprotection”. The “effect of adding orotate on cytoprotection by adenine” value in the series with Caco-2 cells (orotate 1.25 mM with adenine 0.0125 mM through 1.25 mM, 10 μM 5-FU (FIG. 5)) is listed as “did not initially attenuate 5-FU toxicity beyond the cytoprotection provided by adenine alone”; with Caco-2 cells (still higher concentrations of orotate with adenine 2.5 mM (FIG. 6, Results 5, 6 vs 2)), “progressively greater abrogation of salvage”. Besides, the “absorption into the systemic circulation” value in series [4] is given as “better absorbed; also recorded: absorbed at a higher rate”. For the same compound, in the series with primary human skin cells, the “impact on skin (squamous) cell response to 5-FU exposure” value is listed as “does not impact”.
